Data: patent US20080051454A1, “Compositions and methods for transient receptor potential vanilloid (TRPV) channel mediated treatments” (The Board of Trustees Operating Michigan State University, priority 2006, published 2008)
Values belong to the compound of their own block, whether it stands above or below them.

Assays:
[1] = tested on: hearts of TRPV1−/− mice; assay: Langendorff perfused heart, ischemia and reperfusion (I/R) with OLDA, TRPV1-null; set-up: species or system mouse
Description: (§1) The following measurements were made on the two types of heart tissue: left ventricular end-diastolic pressure (LVEDP), left ventricular developed pressure (LVDP), coronary flow (CF), and left ventricular (LV) peak positive rate of pressure change/rate of time change (+dP/dt) were evaluated after I/R.

[2] = tested on: WT and TRPV1−/− hearts; assay: OLDA-induced CGRP and SP release from hearts (radioimmunoassay); set-up: species or system mouse
[3] = tested on: hearts of WT mice; assay: Langendorff perfused heart, ischemia and reperfusion (I/R) with OLDA, wild type; set-up: species or system mouse; settings: OLDA 1.5×10^−7M; WT
Description: as §1

[4] = molecular target: transient receptor potential vanilloid type 1 (TRPV1) channel (Homo sapiens, UniProt Q8NER1); settings: in vitro; cited from earlier work
[5] = tested on: Wistar rats; assay: Neonatal capsaicin treatment plus NS or HS diet: blood pressure, 8-isoprostane, creatinine clearance; type: in vivo, rat
Description: (§2) Enhanced oxidative stress in kidneys of salt-sensitive hypertension: role of sensory nerves (Am J Physiol Heart Circ Physiol 291: H3136-H3143, 2006). To determine the mechanism(s) underlying enhanced oxidative stress in kidneys of salt-sensitive hypertension, neonatal Wistar rats were given vehicle or capsaicin (CAP, 50 mg/kg sc) on the first and second days of life. After being weaned, male rats were assigned into four groups and treated for 2 wk with the following: vehicle+a normal sodium diet (NS, 0.4%, CON-NS), vehicle+a high-sodium diet (HS, 4%, CON-HS), CAP+NS (CAP−NS), and CAP+HS (CAP−HS). […] Plasma and urinary 8-iso-prostaglandin F2alpha levels increased by approximately 40% in CON-HS and CAP−HS rats compared with their respective controls fed a NS diet (P≦0.05), and these parameters were higher in CAP−HS compared with CON-HS rats. Superoxide (O2—) levels in the renal cortex and medulla increased by approximately 45% in CAP−HS compared with CON-HS, CON-NS, and CAP−NS rats (P≦0.05).

[6] = tested on: renal tissues; assay: Capsaicin-induced CGRP release from renal tissues; set-up: species or system rat; settings: Cap-HS and Cap-NS vs Con-NS and Con-HS
Text: N¼5,_P<0.05 versus vehicle, capsazepine plus capsaicin and capsazepine; †P<0.001 versus capsaicin of control rats with a normal sodium diet (Con-NS) and capsaicin of control rats with a high sodium diet (Con-HS). Vehicle; capsaicin; capsazepine and capsaicin; capsazepine.
To examine renal sensory nerve function, renal CGRP release after stimulation of the renal sensory nerves with capsaicin was examined.

[7] = tested on: renal cortex and medulla; assay: Neonatal capsaicin treatment plus NS or HS diet: renal superoxide, SOD and NAD(P)H oxidase subunits; set-up: species or system rat; settings: for renal cortical Cu/Zn SOD activity / renal cortical Cu/Zn SOD protein expression / renal cortical Mn SOD activity / renal cortical Mn SOD protein expression / renal cortical O2— production / renal cortical gp91 phox protein expression / renal cortical p47phox protein expression / renal medullary Cu/Zn SOD activity / renal medullary Cu/Zn SOD protein expression / renal medullary Mn SOD activity / renal medullary Mn SOD protein expression / renal medullary O2— production / renal medullary p47phox protein expression: neonatal CAP
Description: as §2, with “(P≦0.05). […]” for “(P≦0.05).”

[8] = tested on: rats fed either a high or normal sodium diet; settings: rat, in vivo; cited from earlier work
[9] = tested on: Wistar rats fed a NS or HS diet for 10 days; assay: MAP responses to i.v. capsaicin with or without CAPZ in urethane-anesthetized rats; type: in vivo, rat; settings: for decrease in MAP: in mmHg
Description: Surgical Preparation Rats were anesthetized with ketamine and xylazine (80 and 4 mg/kg intraperitoneally, respectively) for cannulation or with urethane (1.5 g/kg intraperitoneally) for capsaicin administration. The left jugular vein, carotid and femoral artery were cannulated under anesthesia for injection of drugs or monitoring of mean arterial pressure (MAP) and heart rate (HR).
Each dose of injection was separated by a 30-minute interval. To determine the specificity of capsaicin, CAPZ (3 mg/kg) was administered 10 minutes before capsaicin injection in a separate group.

[10] = tested on: rats; settings: dose-dependent; abolished by TRPV1 blockade or ipsilateral renal denervation; cited from earlier work
[11] = CAP−HS compared with CON-HS, CON-NS, CAP−NS

Chain of transient receptor potential vanilloid type 1 (TRPV1) channel (Q8NER1 whole entry, species assumed): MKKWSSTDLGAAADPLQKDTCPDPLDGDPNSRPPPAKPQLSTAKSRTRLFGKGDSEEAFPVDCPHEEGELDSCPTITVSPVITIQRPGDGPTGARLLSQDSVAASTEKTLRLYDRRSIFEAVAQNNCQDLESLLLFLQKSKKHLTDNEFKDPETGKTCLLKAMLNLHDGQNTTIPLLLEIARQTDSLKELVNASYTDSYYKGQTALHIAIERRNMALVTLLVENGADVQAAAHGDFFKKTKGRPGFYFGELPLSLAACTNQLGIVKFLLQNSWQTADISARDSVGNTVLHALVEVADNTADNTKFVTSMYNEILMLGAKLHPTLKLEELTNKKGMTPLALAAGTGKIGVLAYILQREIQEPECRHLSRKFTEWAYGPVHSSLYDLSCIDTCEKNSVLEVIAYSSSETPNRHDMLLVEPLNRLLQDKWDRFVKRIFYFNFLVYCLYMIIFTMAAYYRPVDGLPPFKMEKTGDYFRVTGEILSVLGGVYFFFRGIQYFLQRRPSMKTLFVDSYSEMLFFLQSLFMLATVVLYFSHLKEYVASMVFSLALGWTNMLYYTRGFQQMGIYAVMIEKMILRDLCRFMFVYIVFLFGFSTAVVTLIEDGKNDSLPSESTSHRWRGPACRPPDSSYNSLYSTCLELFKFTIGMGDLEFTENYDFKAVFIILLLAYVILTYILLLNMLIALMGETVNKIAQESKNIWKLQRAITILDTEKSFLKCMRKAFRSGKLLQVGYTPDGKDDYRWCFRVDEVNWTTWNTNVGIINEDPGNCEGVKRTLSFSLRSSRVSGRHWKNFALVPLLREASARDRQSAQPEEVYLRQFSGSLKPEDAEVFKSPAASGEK

SMILES: CCCCCCCC/C=C\CCCCCCCC(=O)NCCc1ccc(O)c(O)c1 [OLDA, N-oleoyl-dopamine]
- protective effect in TRPV1−/− hearts [1]: void
- LV peak positive dP/dt (+dP/dt) after I/R ([1]; OLDA 1.5×10^−7M, TRPV1−/−): 1967±299 mmHg/s
- coronary flow (CF) after I/R ([1]; OLDA 1.5×10^−7M, TRPV1−/−): 53±2%
- left ventricular developed pressure (LVDP) after I/R ([1]; OLDA 1.5×10^−7M, TRPV1−/−): 39.8±3.7 mmHg
- left ventricular end-diastolic pressure (LVEDP) after I/R ([1]; OLDA 1.5×10^−7M, TRPV1−/−): 29.9±3.5 mmHg
- CGRP and SP release in WT compared to TRPV1−/− hearts [2]: significantly higher
- LV peak positive dP/dt (+dP/dt) after I/R [3]: 3227±126 mmHg/s
- coronary flow (CF) after I/R [3]: 76±6%
- left ventricular developed pressure (LVDP) after I/R [3]: 61.3±3.8 mmHg
- left ventricular end-diastolic pressure (LVEDP) after I/R [3]: 10.1±0.6 mmHg
- potency relative to capsaicin [4]: at least 30 times

- increase in superoxide levels in renal cortex and medulla [7, 11]: approximately 45%
- renal cortical Cu/Zn SOD activity ([7]; HS): 74.6 9.6 mU/mg protein
- renal cortical Cu/Zn SOD protein expression ([7]; HS): 0.39 0.05 %-actin arbitrary units
- renal cortical Mn SOD activity ([7]; HS): 14.3 3.5 mU/mg protein
- renal cortical Mn SOD protein expression ([7]; HS): 0.10 0.01 %-actin arbitrary units
- renal cortical O2— production ([7]; HS): 3.53 0.46 nmol_min—1_mg dry wt—1
- renal cortical gp91 phox protein expression ([7]; HS): 0.21 0.03 arbitrary units
- renal cortical p47phox protein expression ([7]; HS): 0.07 0.01 arbitrary units
- renal medullary Cu/Zn SOD activity ([7]; HS): 101.7 11.6 mU/mg protein
- renal medullary Cu/Zn SOD protein expression ([7]; HS): 0.41 0.05 %-actin arbitrary units
- renal medullary Mn SOD activity ([7]; HS): 27.1 4.2 mU/mg protein
- renal medullary Mn SOD protein expression ([7]; HS): 0.13 0.02 %-actin arbitrary units
- renal medullary O2— production ([7]; HS): 2.32 0.29 nmol_min—1_mg dry wt—1
- renal medullary p47phox protein expression ([7]; HS): 0.1 0.01 arbitrary units
- renal cortical Cu/Zn SOD activity ([7]; NS): 54.8 7.6 mU/mg protein
- renal cortical Cu/Zn SOD protein expression ([7]; NS): 0.29 0.05 %-actin arbitrary units
- renal cortical Mn SOD activity ([7]; NS): 10.4 2.5 mU/mg protein
- renal cortical Mn SOD protein expression ([7]; NS): 0.07 0.01 %-actin arbitrary units
- renal cortical O2— production ([7]; NS): 2.35 0.55 nmol_min—1_mg dry wt—1
- renal cortical gp91 phox protein expression ([7]; NS): 0.17 0.03 arbitrary units
- renal cortical p47phox protein expression ([7]; NS): 0.05 0.01 arbitrary units
- renal medullary Cu/Zn SOD activity ([7]; NS): 67.0 7.6 mU/mg protein
- renal medullary Cu/Zn SOD protein expression ([7]; NS): 0.27 0.05 %-actin arbitrary units
- renal medullary Mn SOD activity ([7]; NS): 18.7 3.8 mU/mg protein
- renal medullary Mn SOD protein expression ([7]; NS): 0.09 0.02 %-actin arbitrary units
- renal medullary O2— production ([7]; NS): 1.43 0.40 nmol_min—1_mg dry wt—1
- renal medullary p47phox protein expression ([7]; NS): 0.07 0.01 arbitrary units
SMILES: COc1cc(CNC(=O)CCCC/C=C/C(C)C)ccc1O [capsaicin, (E)-N-(4-hydroxy-3-methoxybenzyl)-8-methylnon-6-enamide]
- decrease in creatinine clearance [5, 11]: 45%
- increase in plasma and urinary 8-iso-prostaglandin F2alpha levels ([5]; CAP−HS compared with control fed a NS diet): approximately 40%
- plasma and urine 8-isoprostane levels ([5]; neonatal CAP, NS diet): did not increase
- renal CGRP release in response to 1 mmol/l capsaicin in capsaicin-pretreated vs control rats [6]: significantly lower
- MAP [8]: decrease in MAP
- plasma CGRP levels [8]: increase in plasma CGRP levels
- decrease in MAP ([9]; CAP 10 μg/kg iv, HS): 11±2
- decrease in MAP ([9]; CAP 10 μg/kg iv, NS): 6±1
- decrease in MAP ([9]; CAP 30 μg/kg iv, HS): 21±3
- decrease in MAP ([9]; CAP 30 μg/kg iv, NS): 12 ±2
- decrease in MAP (depressor effect) ([9]; capsaicin 10 μg/kg iv, HS): 11±2 mmHg
- decrease in MAP (depressor effect) ([9]; capsaicin 10 μg/kg iv, NS): 6±1 mmHg
- decrease in MAP (depressor effect) ([9]; capsaicin 30 μg/kg iv, HS): 21±3 mmHg
- decrease in MAP (depressor effect) ([9]; capsaicin 30 μg/kg iv, NS): 12±2 mmHg
- Uflow and UNa [10]: Increases
